This passage reports EC50 and Emax results from patent US12637414B2, “Arylamides and methods of use thereof” (Genzyme Corporation, priority 2019, dated 2026).

The target in the assay is T1, human Cystic Fibrosis Transmembrane Conductance Regulator (CFTR) harboring the ΔF508 mutation (Homo sapiens, UniProt P13569, DEL508-508).
T1 construct: expressed in transfected cells; host or cells: H441 carcinoma line (G418 selection)
The assay can be described thus: H441 cell Emax and EC50: HRP-tagged ΔF508-CFTR cell surface luminescence assay. Format: cell-based. The note with it: H441 cells expressing ΔF508-CFTR-HRP, 27° C., two nights; for EC50: 15-point dose-response, top 24.5 μM; for Emax: NCI-H441, % of maximum VX809 signal. The source says:
Two cell lines were used, the H441 carcinoma line and the CFHBE41o-(41o-) human bronchial epithelial line. Both cell lines expressed human Cystic Fibrosis Transmembrane Conductance Regulator (CFTR) harboring the ΔF508 mutation and with an in-frame fusion in CFTR extracellular loop 4 of Horse Radish Peroxidase (HRP) under control of the CMV promoter. In the presence of the HRP tag, ΔF508-CFTR transported to the cell surface was detectable upon addition of an HRP substrate (Luminata Forte). Both cell types were cultivated at 37° C. with CO2.
For both cell types, the medium was changed every other day unless the culture was at low % confluence. Cells were used for the assays at ˜75% confluence.
To a polypropylene (PP) 384-well plate, 15 μls DMSO was added to all wells in columns 1-22 and 24 (low Control). 15 μls of 260 μM VX809 (Lumacaftor), Selleckchem S1565, was added to column 23 wells (high Control). 15 μls of 10 mM test compound or VX809 (control) were added to wells of row A. Serial dilutions of Row A compound were performed 2×15 μls in rows A through O (15-point).
A PP, 384-well plate containing the appropriate cell culture medium was prepared for each assay plate with 100 μls per well. For the doxycycline-induced 41o-cells, doxycycline for both the assay plate and the medium dilution plate was added at 0.0005 mg/ml to the medium.
Both cell lines were plated for the assay at 30 uls per 384-well at 3.4×10^e5 cells per ml (˜10K cells/well). H441 cells were plated on opaque, white, Corning plate 3704. 41o-cells were plated on collagen-coated opaque, white, Corning plate 356665. For 41o-cells, doxycycline was added to the medium.
Using FX (Beckman) protocol, 10 uls diluted compound or medium was added per well to the Assay Plate as: 2 μls DMSO Dilution plate well is diluted in 100 uls of the Medium Dilution Plate well, mixed, and 10 uls is transferred to the Assay Plate.
The final assay dilution series is 24.5, 12.3, 6.1, 3.1, 1.5, 0.8, 0.4, 0.2, 0.1, 0.05, 0.02, 0.01, 0.006, 0.003, 0.001 and 0 μM. The 41o-assay plates were incubated at 37° C. w/CO2, the H441 assay plates were incubated at 27° C. w/CO2, each overnight for two nights.
After being brought to room temperature, the assay plate liquid was removed. 30 μls of Luminata Forte (Millipore ELLUF0100) was added per well and incubated at room temperature for 10 min. The plates were then read on a Topcount, protocol LumiMatti (CPS, luminescence). The data was analyzed for % of maximum, maximum VX809 signal, and EC50 using Pearl and SPEED tools.

A value given as a limit tells only on which side of the number the result lay.

T1 sequence (P13569 with tags, fused parts or gaps DEL508-508): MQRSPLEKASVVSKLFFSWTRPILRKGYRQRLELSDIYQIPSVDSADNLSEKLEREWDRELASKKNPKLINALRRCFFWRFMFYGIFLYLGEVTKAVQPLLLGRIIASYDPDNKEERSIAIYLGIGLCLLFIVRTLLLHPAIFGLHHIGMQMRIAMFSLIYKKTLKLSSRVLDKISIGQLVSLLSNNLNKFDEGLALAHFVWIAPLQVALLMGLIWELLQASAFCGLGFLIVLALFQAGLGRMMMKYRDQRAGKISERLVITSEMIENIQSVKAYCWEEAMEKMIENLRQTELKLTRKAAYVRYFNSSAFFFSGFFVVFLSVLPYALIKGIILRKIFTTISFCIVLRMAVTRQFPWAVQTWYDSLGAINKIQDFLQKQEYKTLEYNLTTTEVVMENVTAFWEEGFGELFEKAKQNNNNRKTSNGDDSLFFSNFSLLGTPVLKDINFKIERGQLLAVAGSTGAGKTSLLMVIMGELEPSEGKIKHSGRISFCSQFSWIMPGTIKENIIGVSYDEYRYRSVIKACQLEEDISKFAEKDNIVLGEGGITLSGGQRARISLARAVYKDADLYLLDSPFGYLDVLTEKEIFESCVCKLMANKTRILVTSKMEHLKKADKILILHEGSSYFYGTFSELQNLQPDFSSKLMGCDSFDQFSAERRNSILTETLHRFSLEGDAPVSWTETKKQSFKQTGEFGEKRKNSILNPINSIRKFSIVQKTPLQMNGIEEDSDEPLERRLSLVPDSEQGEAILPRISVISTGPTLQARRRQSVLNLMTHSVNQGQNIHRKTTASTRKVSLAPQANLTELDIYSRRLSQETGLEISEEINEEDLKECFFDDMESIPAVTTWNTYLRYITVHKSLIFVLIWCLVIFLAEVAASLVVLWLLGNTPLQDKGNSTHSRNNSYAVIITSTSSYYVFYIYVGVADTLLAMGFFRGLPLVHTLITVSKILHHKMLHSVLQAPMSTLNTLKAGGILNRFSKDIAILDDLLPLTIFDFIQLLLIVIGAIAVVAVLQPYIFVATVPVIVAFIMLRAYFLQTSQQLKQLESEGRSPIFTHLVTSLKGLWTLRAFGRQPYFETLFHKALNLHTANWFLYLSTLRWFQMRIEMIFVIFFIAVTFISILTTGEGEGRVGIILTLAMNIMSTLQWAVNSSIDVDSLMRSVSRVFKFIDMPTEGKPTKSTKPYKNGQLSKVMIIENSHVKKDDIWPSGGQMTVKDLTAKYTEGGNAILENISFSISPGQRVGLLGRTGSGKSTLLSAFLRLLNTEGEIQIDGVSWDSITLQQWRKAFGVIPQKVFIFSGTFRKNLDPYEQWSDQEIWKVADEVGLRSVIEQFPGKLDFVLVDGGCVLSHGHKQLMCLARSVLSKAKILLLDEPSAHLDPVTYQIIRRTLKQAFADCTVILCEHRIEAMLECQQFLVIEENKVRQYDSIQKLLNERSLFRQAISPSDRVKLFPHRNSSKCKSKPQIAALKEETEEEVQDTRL

The term EC50 denotes the concentration that produces a half-maximal response. Higher therefore signals a less potent agent. The Emax is the size of the effect at its maximum, as opposed to the concentration needed. Regarding `O=C(N[C@H](C(=O)O)C12CC3CC(CC(C3)C1)C2)c1ccc2ccccc2c1OCc1nc(C(F)(F)F)cs1` [compound 100, (2S)-2-(1-adamantyl)-2-[[1-[[4-(trifluoromethyl)thiazol-2-yl]methoxy]naphthalene-2-carbonyl]amino]acetic acid], the response was half-maximal at 2880 nM (EC50) and the Emax was found to be 55.8%.
Turning to `O=C(N[C@H](C(=O)O)C12CC3CC(CC(C3)C1)C2)c1sc2ccccc2c1OCc1ccc(OC(F)(F)F)cc1` [compound 93], the EC50 is 908 nM and the Emax is 108%.
Turning to `O=C(N[C@H](C(=O)O)C12CC3CC(CC(O)(C3)C1)C2)c1ccc2cccnc2c1OCc1ccc(C(F)(F)F)cc1` [compound 22], a half-maximal effect (EC50) was put at 3660 nM and the Emax was 175%.
`O=C(N[C@H](C(=O)O)C12CC3CC(CC(Br)(C3)C1)C2)c1ccc2cccnc2c1OCc1ccc(C(F)(F)F)cc1` [compound 67] yielded an EC50 of 879 nM and an Emax of 134%.
`CC12CC3(C)CC(C)(C1)CC(C(NC(=O)c1ccc4ccccc4c1OCC1CCCCC1)C(=O)O)(C2)C3` (centres unmarked) [compound 75] had an EC50 of 599 nM and an Emax of 271%.
For the molecule `O=C(N[C@H](C(=O)O)C12CC3CC(CC(C3)C1)C2)c1ccc2ccccc2c1OCc1ccc(Cl)c(Cl)c1` [compound 89], a half-maximal response (EC50) required 350 nM and the Emax amounted to 204%.
For `CS(=O)(=O)c1ccc(COc2c(C(=O)N[C@H](C(=O)O)C34CC5CC(CC(C5)C3)C4)ccc3ccccc23)cc1` [compound 58], in that order: 15800 nM and 30.1%.
The molecule `O=C(N[C@H](C(=O)O)C12CC3CC(CC(C3)C1)C2)c1ccc2cc(F)ccc2c1OCc1ccc(SC(F)(F)F)cc1` [compound 57] yielded an EC50 of 296 nM and an Emax of 92.5%.
For `O=C(N[C@H](C(=O)O)C12CC3CC(CC(C3)C1)C2)c1ccc2ccccc2c1OC[C@H]1CC[C@H](C(F)(F)F)CC1` [compound 48], in that order: 729 nM and 124%.
On to `O=C(N[C@H](C(=O)O)C12CC3CC(CC(O)(C3)C1)C2)c1ccc2ccccc2c1OCc1ccc(OC(F)(F)F)cc1` [compound 35], for which the EC50 was 1130 nM and the Emax amounted to 141%.
`O=C(N[C@H](C(=O)O)C12CC3CC(CC(C3)C1)C2)c1ccc2ccccc2c1OCC1CCCCC1` [compound 52] came in with an EC50 of 903 nM and an Emax of 171%.
`O=C(N[C@H](C(=O)O)C12CC3CC(CC(O)(C3)C1)C2)c1sc2ccccc2c1OCc1ccc(OC(F)(F)F)cc1` [compound 13] gave an EC50 of 3480 nM and an Emax of 87.3%.
For the molecule `O=C(N[C@H](C(=O)O)C12CC3CC(CC(C3)C1)C2)c1ccc2ccccc2c1OCc1ccc(OC(F)(F)F)cc1` [compound 8], the response was half-maximal at 1400 nM (EC50) and the Emax was determined as 176%.
For the molecule `CC(C)OC(=O)[C@@H](NC(=O)c1ccc2cccnc2c1OCc1ccc(C(F)(F)F)cc1)C12CC3CC(CC(C3)C1)C2` [compound 69], the EC50 was not below 24500 nM and the Emax came out at 28.9%.
For the molecule `O=C(N[C@H](C(=O)O)C12CC3CC(CC(C3)C1)C2)c1ccc2occc2c1OCc1ccc(OC(F)(F)F)cc1` [compound 124, (2S)-2-(1-adamantyl)-2-[[4-[[4-(trifluoromethoxy)phenyl]methoxy]benzofuran-5-carbonyl]amino]acetic acid], the EC50 came out at 471 nM and the Emax stood at 116%.
`O=C(N[C@H](C(=O)O)C12CC3CC(CC(O)(C3)C1)C2)c1ccc2ccccc2c1NCc1ccc(SC(F)(F)F)cc1` [compound 131, (2S)-2-(3-hydroxy-1-adamantyl)-2-[[1-[[4-(trifluoromethylsulfanyl)phenyl]methylamino]naphthalene-2-carbonyl]amino]acetic acid] registered an EC50 of 1400 nM and a maximal effect (Emax) of 21.7%.
`O=C(N[C@H](C(=O)O)C12CC3CC(CC(C3)C1)C2)c1ccc2ccccc2c1OCC#CC1CC1` [compound 101, (2S)-2-(1-adamantyl)-2-[[1-(3-cyclopropylprop-2-ynoxy)naphthalene-2-carbonyl]amino]acetic acid]: the half-maximal effective concentration (EC50) turned out to be 2700 nM and the Emax was 145%.
In turn, `CCOC(=O)[C@H](C)OC12CC3CC(C1)CC([C@H](NC(=O)c1ccc4cc(F)ccc4c1OCc1ccc(C(F)(F)F)cc1)C(=O)O)(C3)C2` [compound 87] returned an EC50 of 287 nM and an Emax of 96.2%.
In the case of `O=C(N[C@H](C(=O)O)C12CC3CC(CC(C3)C1)C2)c1ccc2cc(F)ccc2c1OCC1CCC(F)(F)CC1` [compound 16], the EC50 came out at 1750 nM and the Emax stood at 90%.
`O=C(N[C@H](C(=O)O)C12CC3CC(CC(O)(C3)C1)C2)c1ccc2ccccc2c1OCC1CCC(F)(F)CC1` [compound 53] yielded an EC50 of 7220 nM and an Emax of 74.1%.
`C=COc1ccc2c(OCc3ccc(C(F)(F)F)cc3)c(C(=O)N[C@H](C(=O)O)C34CC5CC(CC(C5)C3)C4)ccc2c1` [compound 63] gave an EC50 of 228 nM and an Emax of 54.9%.
In the case of `CCOC12CC3CC(C1)CC([C@H](NC(=O)c1ccc4ccccc4c1OCc1ccc(C(F)(F)F)cc1)C(=O)O)(C3)C2` [compound 27], a half-maximal response (EC50) required 153 nM and the Emax was determined as 215%.
Turning to `O=C(N[C@H](C(=O)O)C12CC3CC(CC(C3)C1)C2)c1ccc2cccnc2c1OCc1ccc(Cl)c(Cl)c1` [compound 31], the EC50 amounted to 308 nM and the Emax stood at 194%.
`C[C@@H](OC12CC3CC(C1)CC([C@H](NC(=O)c1ccc4cc(F)ccc4c1OCc1ccc(C(F)(F)F)cc1)C(=O)O)(C3)C2)C(=O)O` [compound 36] came in with an Emax of 0.9%.
For the molecule `O=C(N[C@H](C(=O)O)C12CC3CC(CC(C3)C1)C2)c1ccc2ccccc2c1OCc1ccc(SC(F)(F)F)cc1` [compound 2], the EC50 turned out to be 393 nM and the Emax stood at 154%.
For `CC12CC3(C)CC(C)(C1)CC([C@H](NC(=O)c1ccc4ccccc4c1OCc1ccc(C(F)(F)F)cc1)C(=O)O)(C2)C3` [compound 59], in that order: 291 nM and 257%.
On to `O=C(NC(C(=O)O)C12CC3CC(CC(OCC(Cl)Cl)(C3)C1)C2)c1ccc2cc(F)ccc2c1OCc1ccc(C(F)(F)F)cc1` (centres unmarked) [compound 91], for which the EC50 came to 441 nM and the Emax stood at 110%.
Turning to `O=C(N[C@H](C(=O)O)C12CC3CC(CC(C3)C1)C2)c1ccc2sccc2c1OCc1nc2ccccc2s1` [compound 113, (2S)-2-(1-adamantyl)-2-[[4-(1,3-benzothiazol-2-ylmethoxy)benzothiophene-5-carbonyl]amino]acetic acid], the response was half-maximal at 596 nM (EC50) and the Emax is 184%.
In turn, `CC(C)C#CCOc1c(C(=O)N[C@H](C(=O)O)C23CC4CC(CC(C4)C2)C3)ccc2cc(F)ccc12` [compound 72] came in with an EC50 of 11200 nM and an Emax of 92.7%.
Consider `O=C(N[C@H](C(=O)O)C12CC3CC(CC(C3)C1)C2)c1ccc2sccc2c1OCC1CCCCC1` [compound 104, (2S)-2-(1-adamantyl)-2-[[4-(cyclohexylmethoxy)benzothiophene-5-carbonyl]amino]acetic acid], for which a half-maximal response (EC50) required 1230 nM and the Emax stood at 228%.
`O=C(N[C@H](C(=O)O)C12CC3CC(CC(OCC(F)(F)F)(C3)C1)C2)c1ccc2ccccc2c1OCc1ccc(C(F)(F)F)cc1` [compound 6] showed an EC50 of 126 nM and an Emax of 233%.
For `O=C(N[C@H](C(=O)O)C12CC3CC(CC(C3)C1)C2)c1sc2ccccc2c1OCC1CCCCC1` [compound 94], in that order: 915 nM and 257%.
For `O=C(N[C@H](C(=O)O)C12CC3CC(CC(C3)C1)C2)c1ccc2occc2c1OCC1CCCCC1` [compound 116, (2S)-2-(1-adamantyl)-2-[[4-(cyclohexylmethoxy)benzofuran-5-carbonyl]amino]acetic acid], in that order: 1770 nM and 212%.
